Results published in article PMC7178883, “1,2,4-Triazole-based anticonvulsant agents with additional ROS scavenging activity are effective in a model of pharmacoresistant epilepsy” (Journal of Enzyme Inhibition and Medicinal Chemistry, 2020).
≈ marks a conversion by molar mass, not a printed value. Read-outs that look alike come from different tables or passages of the source.

What was measured:
[1] = system: generalised tonic-clonic seizures (MES test); parameters: method as in PMID 30594731, PMID 23291122, PMID 25226229, PMID 25090118; conditions: Figure 1, cited from earlier work; for ED50: MES test
DPPH assay = conditions: methanol, 30 min, 517 nm
Protocol: Free radical scavenging activity of compounds TP-10, TP-315 and TP-427 was evaluated using DPPH assay. Briefly, 25 µl of 0.2 mM of methanolic solution of DPPH ([…]) was mixed with 175 µl of varying concentrations (0.002–4.5 mg/ml) of the studied compounds dissolved in methanol. Reaction mixtures in the 96-well plate were incubated in the dark at room temperature for 30 min. The absorbance was measured at 517 nm against blank (which consists of all reagents without the investigated compounds) using a microplate reader (Epoch, BioTek Instruments, Inc., Winooski, VT, USA). As a reference, the antioxidant activity of vitamin C was evaluated. Each concentration of the compounds was assayed at least six times. The results were expressed as the IC50 (µg/ml) ± SD calculated using the linear regression analysis.

U-87 MG cells = test: Total ROS activity assay (flow cytometry); assay type: cell-based, human; conditions: 10 µg/ml, 24 h; for ROS positive cells: control 90.2%
Protocol: Total ROS activity was measured using Intracellular Total ROS Activity Assay Kit (ImmunoChemistry Technologies, Bloomington, MN, USA). After 24 h of incubation of glioblastoma cells U-87 MG (ATCC, Manassas, VA, USA) with the test compounds in concentration 10 µg/ml, the medium was removed, the cells were washed twice with the cold PBS solution and the Assay Buffer (provided by the kit manufacturer) was added. Then, cells (at a density of 1 × 10^6 cells/ml) were treated with 10 µl of Total ROS green reagent and incubated for 1 h at 37 °C in a CO2 incubator. After incubation, the cells were subjected to a rinsing procedure using the Assay Buffer. Cells were suspended in 500 µl of the Assay Buffer and analysed using a flow cytometer (BD FACSCanto II flow cytometer) and FACSDiva software (both from BD Biosciences Systems, San Jose, CA, USA).

hCA II = biological target: T1, hCA II (Homo sapiens, UniProt P00918); test: Carbonic anhydrase inhibition, stopped flow CO2 hydration; assay type: biochemical
T1 construct: made in house
Protocol: Carbonic anhydrase catalysed CO2 hydration activity was measured using an Applied Photophysics stopped-flow spectrometer. […] The uncatalyzed rates were determined in the same manner and subtracted from the total observed rates. Stock solutions of inhibitor (0.1 mM) were prepared in distilled-deionized water and dilutions up to 0.01 nM were done thereafter with the assay buffer. […] The inhibition constants were obtained by non-linear least-squares methods using PRISM 3 and the Cheng–Prusoff equation and represent the mean from at least three different determinations. All CA isoforms were recombinant ones obtained in-house[21]^,[22].

[2] = system: 6 Hz-induced psychomotor seizures; test: 6 Hz psychomotor seizure test; assay type: in vivo, mice; conditions: for ED50: Mus musculus, ip; for Protective index (TD50/ED50): TD50 chimney test / ED50 6 Hz test
Protocol: All experiments on animals were performed in accordance with EU Directive 2010/63/EU for animal experiments and complied with the ARRIVE guidelines. Ethics approval for animal experimentations was obtained from the Local Ethics Committee (Lublin, Poland, approval number: 65/2018). Psychomotor seizures in mice were evoked by current (6 Hz, 0.2 ms rectangular pulse width, 32 mA, 3 s duration) generated by an S48 Square Pulse Stimulator and CCU1 Constant Current Unit (Grass Technologies, West Warwick, RI, USA). After application of ophthalmic anaesthetic (0.5% tetracaine hydrochloride) to the mice corneas, the animals underwent corneal stimulation and were placed separately in plexiglas cages (25 × 15 × 10 cm) for the observation of the presence or absence of psychomotor seizures. The animals were administered with increasing doses of TP-10, TP-315, TP-427, and the anticonvulsant activity of each compound was evaluated as the ED50 value (median effective dose of the drug, which protects 50% of mice against convulsions) calculated using the log-probit method of Litchfield and Wilcoxon[18].

[3] = system: human recombinant butyrylcholinesterase (hrBChE); test: BChE inhibition, Ellman method; assay type: biochemical; conditions: 500 µM
Protocol: (§1) The inhibition ability of tested compounds against human recombinant acetylcholinesterase (hrAChE) and human recombinant butyrylcholinesterase (hrBChE) was determined by standard Ellman method adapted for 96-well plate. The reaction mixture contained 10 µL of hrAChE (70 ng/mL protein final concentration) or hrBChE (220 ng/mL protein final concentration), 10 µL of tested compound (1, 10, 100, and 500 µM final concentration), 20 µL of 5,5′-dithiobis-2-nitrobenzoic acid (DTNB; 500 µM final concentration), and 60 µL of 20 mM Na-phosphate buffer (pH 7.4). The mixture was pre-incubated at 37 °C for 15 min and subsequently 10 µL substrate acetylthiocholine iodide (ATChI) or butyrylthiochiline iodide (BTChI) was added to the final concentration of 1000 µM[24]. The final volume of reaction mixture was 100 µL. The product formed during the reaction (5-thio-2-nitrobenzoic acid, TNB) was determined by measurement of its absorbance at 436 nm. The catalytic activity was evaluated as amount of product (%) formed by enzyme after 10 min of mixture incubation at 37 °C.

[4] = system: human recombinant acetylcholinesterase (hrAChE); test: AChE inhibition, Ellman method; assay type: biochemical; conditions: 500 µM
Protocol: as §1

[5] = 1 h incubation, read-out: KI hCA II (1h)
[6] = 6 h incubation, read-out: KI hCA II (6h)
[7] = mice, i.p., 32 mA, pretreatment time 15 min, read-out: ED50 ± SEM
[8] = mice, i.p., 32 mA, pretreatment time 30 min, read-out: ED50 ± SEM
[9] = mice, i.p., 32 mA, pretreatment time 60 min, read-out: ED50 ± SEM
[10] = mice, i.p., 32 mA, pretreatment time 120 min, read-out: ED50 ± SEM
[11] = mice, i.p., pretreatment times 15 to 120 min, read-out: ED50, range over the time-course
[12] = incubation time not given, read-out: Ki CA II

## Cc1ccc(-n2c(-c3cccc(Cl)c3)n[nH]c2=S)cc1 [TP-10, 5-(3-chlorophenyl)-4-(4-methylphenyl)-2,4-dihydro-3H-1,2,4-triazole-3-thione]
[1]
  interaction with VPA: synergism with VPA
  ED50: 57.0 mg/kg
DPPH assay
  IC50 ± SD, DPPH: 31.72 ± 1.05 µg/mL (≈ 105 µM)
U-87 MG cells
  ROS negative cells: 11.5%
  ROS positive cells: 88.5%
hCA II; [5]
  Ki: 74.6 µM
hCA II; [6]
  Ki: > 100 µM
[2]; 0.5 h, within the first 30 min after i.p. administration, read-out: ED50 (constant activity)
  ED50: ~60 mg/kg
[2]; [7]
  ED50: 62.6 ± 13.2 mg/kg
[2]; [8]
  ED50: 61.1 ± 9.7 mg/kg
[2]; [9]
  ED50: 170 ± 18.5 mg/kg
[2]; [10]
  ED50: 168 ± 17.4 mg/kg
[2]; [11]
  ED50: 61.1 to 170 mg/kg
[2]; pretreatment time 15 min
  Protective index (TD50/ED50): 5.4
[2]; pretreatment time 30 min
  Protective index (TD50/ED50): 5.5
[2]; pretreatment time 60 min
  Protective index (TD50/ED50): 2.0
[2]; pretreatment time 120 min
  Protective index (TD50/ED50): 2.4
[2]; mice, i.p.
  Peak of anticonvulsant activity (time after i.p. administration): 30 min
[3]
  hrBChE activity: 84%
[4]
  decrease of hrAChE activity: ~54%

## CCCCCCn1c(-c2cccc(Cl)c2)n[nH]c1=S [TP-315, 5-(3-chlorophenyl)-4-hexyl-2,4-dihydro-3H-1,2,4-triazole-3-thione]
[1]
  ED50: 47.6 mg/kg
DPPH assay
  IC50 ± SD, DPPH: 56.87 ± 0.70 µg/mL (≈ 192 µM)
U-87 MG cells
  ROS negative cells: 14.1%
  ROS positive cells: 85.9%
hCA II; [5]
  Ki: > 100 µM
hCA II; [6]
  Ki: > 100 µM
hCA II; [12]
  Ki: > 100 µM
[2]; [7]
  ED50: 61.3 ± 10.1 mg/kg
[2]; [8]
  ED50: 59.7 ± 6.8 mg/kg
[2]; [9]
  ED50: 68.1 ± 11 mg/kg
[2]; [10]
  ED50: 136 ± 18.3 mg/kg
[2]; [11]
  ED50: 59.7 to 136 mg/kg
[2]; pretreatment time 15 min
  Protective index (TD50/ED50): 7.6
[2]; pretreatment time 30 min
  Protective index (TD50/ED50): 7.8
[2]; pretreatment time 60 min
  Protective index (TD50/ED50): 6.7
[2]; pretreatment time 120 min
  Protective index (TD50/ED50): 3.3
[2]; mice, i.p.
  Peak of anticonvulsant activity (time after i.p. administration): 30 min
[3]
  hrBChE activity: 59%
[4]
  decrease of hrAChE activity: ~66%

## CCCCCCn1c(Cc2cccc(Cl)c2)n[nH]c1=S [TP-427, 5-(3-chlorobenzyl)-4-hexyl-2,4-dihydro-3H-1,2,4-triazole-3-thione]
[1]
  interaction with VPA: synergism with VPA
  ED50: 72.1 mg/kg
DPPH assay
  IC50 ± SD, DPPH: 110.51 ± 2.12 µg/mL (≈ 357 µM)
U-87 MG cells
  ROS negative cells: 20.9%
  ROS positive cells: 79.1%
hCA II; [5]
  Ki: > 100 µM
hCA II; [6]
  Ki: > 100 µM
hCA II; [12]
  Ki: > 100 µM
[2]; [7]
  ED50: 40.9 ± 6.4 mg/kg
[2]; [8]
  ED50: 46.6 ± 8.2 mg/kg
[2]; [9]
  ED50: 51.6 ± 6.9 mg/kg
[2]; [10]
  ED50: 64.9 ± 5.6 mg/kg
[2]; [11]
  ED50: 40.9 to 64.9 mg/kg
[2]; pretreatment time 15 min
  Protective index (TD50/ED50): >24.4
[2]; pretreatment time 30 min
  Protective index (TD50/ED50): >21.5
[2]; pretreatment time 60 min
  Protective index (TD50/ED50): 10.5
[2]; pretreatment time 120 min
  Protective index (TD50/ED50): 8.5
[2]; mice, i.p.
  Peak of anticonvulsant activity (time after i.p. administration): 15 min
[3]
  hrBChE activity: 78%
[4]
  decrease of hrAChE activity: ~61%
